This note sets out measurements from US6770650B2, “Cyclic amine derivatives-CCR-3 receptor antagonists” (Syntex (U.S.A.) LLC, priority 1997, dated 2004).

pIC50: −log10 of the molar value. Where a name gives a salt, the structure may show the parent alone.

By pIC50 is commonly meant the IC50 on a negative log10 scale, so that one unit is a factor of ten. A higher pIC50 goes with a low IC50. By melting point is commonly meant the temperature of the solid-liquid transition.

The first data set concerns the target T1, CCR-3 receptor (Homo sapiens, UniProt P51677).
T1 construct: expressed in transfected cells; host or cells: L1.2 cells (murine pre-B lymphoma line)
T1 sequence (P51677 1-355): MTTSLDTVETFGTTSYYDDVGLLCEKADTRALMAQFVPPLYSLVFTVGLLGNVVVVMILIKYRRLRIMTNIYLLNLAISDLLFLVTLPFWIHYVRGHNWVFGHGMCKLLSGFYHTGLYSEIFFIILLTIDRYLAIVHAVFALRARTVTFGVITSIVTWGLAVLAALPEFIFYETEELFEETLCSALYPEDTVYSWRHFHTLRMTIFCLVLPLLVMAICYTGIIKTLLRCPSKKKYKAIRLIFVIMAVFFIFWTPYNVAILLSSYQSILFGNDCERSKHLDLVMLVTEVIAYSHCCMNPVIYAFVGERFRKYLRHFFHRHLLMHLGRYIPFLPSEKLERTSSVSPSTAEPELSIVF
Put plainly: CCR-3 Receptor Binding Assay, inhibition of 125I eotaxin binding to CCR-3 L1.2 transfectant cells. The settings on record: concentration required to reduce 125I-eotaxin binding to the CCR-3 L1.2 transfected cells by 50%. As for the experimental part:
The CCR-3 antagonistic activity of the compounds of the invention was determined by their ability to inhibit the binding of ^125I eotaxin to CCR-3 L1.2 transfectant cells ((see Ponath, P. D. et al., J. Exp. Med., Vol. 183, 2437-2448, (1996)).
The assay was performed in Costar 96-well polypropylene round bottom plates. Test compounds were dissolved in DMSO and then diluted with binding buffer (50 mM HEPES, 1 mM CaCl2, 5 mM MgCl2, 0.5% bovine serum albumin (BSA), 0.02% sodium azide, pH 7.24) such that the final DMSO concentration was 2%. 25 μl of the test solution or only buffer with DMSO (control samples) was added to each well, followed by the addition of 25 μl of ^125I-eotaxin ([…]) (NEX314, New England Nuclear, Boston, Mass.) and 1.5×10^5 of the CCR-3 L1.2 transfected cells in 25 μl binding buffer. The final reaction volume was 75 μl.
After incubating the reaction mixture for 1 h at room temperature, the reaction was terminated by filtering the reaction mixture through polyethylenimine treated Packard Unifilter GF/C filter plate (Packard, Chicago, Ill.). The filters were washed four times with ice cold wash buffer containing 10 mm HEPES and 0.5M sodium chloride (pH 7.2) and dried at 65° C. for approximately 10 min. 25 μl/well of Microscint-20™ scintillation fluid (Packard) was added and the radioactivity retained on the filters was determined by using the Packard TopCount™.
The IC50 value (concentration of test compound required to reduce ^125I-eotaxin binding to the CCR-3 L1.2 transfected cells by 50%) for some of the compounds of the invention was: […]
In turn, `CC(C)C(CN1CCN(Cc2ccc(Cl)cc2)CC1)NS(=O)(=O)c1ccc(Cl)cc1` (racemic) [compound 118] had a pIC50 of 5.82.

For `CC(C)C(CN1CCN(Cc2ccc(Cl)c(Cl)c2)CC1)NS(=O)(=O)c1ccc(F)cc1` (stereo in doubt) [compound 117, N-{1(R)-[4-(3,4-Dichlorobenzyl)piperazin-1-ylmethyl]-2-methylpropyl}-4-flourobenzenesulfonamide], the negative-log IC50 (pIC50) was 5.88.

In turn, `CC(C)C(CN1CCN(Cc2ccc(Cl)cc2)CC1)NS(=O)(=O)c1ccc(C(F)(F)F)cc1` (stereo not shown) [compound 121] had a pIC50 of 5.45. On the same count and under the same terms, the figure for `CC(=O)c1cccc(NC(=O)NC(CN2CCN(Cc3ccc(Cl)c(Cl)c3)CC2)C(C)C)c1` (stereo not shown) [compound 91] is 5.72; for `CC(C)[C@@H](CN1CCN(Cc2ccc(Cl)c(Cl)c2)CC1)NC(=O)c1ccc2ccccc2c1` [compound 19, N-{1(S)-[4-(3,4-Dichlorobenzyl)piperazin-1-ylmethyl]-2-methylpropyl}-2-naphthaleneamide] it is 6.02; for `CC(C)C(CN1CCN(Cc2ccc(Cl)cc2)CC1)NC(=S)Nc1cccc2ccccc12` (stereo not shown) [compound 109] it is 5.55. As for `CC(C)C(CN1CCN(Cc2ccc(Cl)c(Cl)c2)CC1)NC(=O)Nc1cccc(Br)c1` (stereo not shown) [compound 88], the pIC50 is 5.83. Compound `COc1cccc(NC(=O)N[C@H](CN2CCC(Cc3ccc(Cl)c(Cl)c3)CC2)C(C)(C)C)c1` [compound 99] gave a pIC50 of 5.63. The same measure, in the same setting: the value for “1-{1(RS)-[4-(4-Chlorobenzyl)piperazin-1-yl]-2-methylpropyl}-3-(3-methylphenyl)-2-thiourea [compound 107]” was 5.94. On the same count and under the same terms, the value for `CCOc1ccccc1NC(=O)NC(CN1CCN(Cc2ccc(Cl)c(Cl)c2)CC1)C(C)C` (stereo not shown) [compound 86] was 5.94.

For `Cc1ccc(C(=O)N2CCC[C@@H]2CN2CCN(Cc3ccc(Cl)c(Cl)c3)CC2)cc1` [compound 78, {1-(4-Methylbenzoyl)-2(R)-[4-(3,4-dichlorobenzyl)piperazin-1-ylmethyl]}pyrrolidine Dihydrochloride Salt], the negative-log IC50 (pIC50) was 5.30. On the same count and under the same terms, the value for `CCCC(CN1CCN(Cc2ccc(Cl)c(Cl)c2)CC1)NC(=O)c1ccc(C)cc1` (stereo not shown) [compound 23] was 5.88; that for `Cc1ccc(C(=O)N[C@H](CN2CCN(Cc3ccc(Cl)c(Cl)c3)CC2)C(C)C)cc1` [compound 8, N-{1(S)-[4-(3,4-Dichlorobenzyl)piperazin-1-ylmethyl]-2-methylpropyl}-4-methylbenzamide dihydrochloride salt] was 6.62. The compound `CC(C)C(CN1CCN(Cc2ccc(Cl)c(Cl)c2)CC1)NC(=O)c1ccc2ccccc2n1` (stereo not shown) [compound 24] showed a pIC50 of 5.86. On the same count and under the same terms, the figure for `CC(C)(C)[C@@H](CN1CCC(Cc2ccc(Cl)c(Cl)c2)CC1)NC(=O)c1ccc(Cl)cc1` [compound 61] is 5.75; for `COc1ccccc1NC(=S)NC(CN1CCN(Cc2ccc(Cl)c(Cl)c2)CC1)C(C)C` (stereo not shown) [compound 110] it is 5.52; for `CC(C)C(CN1CCN(Cc2ccc(Cl)c(Cl)c2)CC1)NC(=O)c1ccncc1` (stereo not shown) [compound 20] it is 6.02. Turning to `CC(C)C(CN1CCN(Cc2ccc(Cl)c(Cl)c2)CC1)NC(=O)Cc1cccs1` (racemic) [compound 25, N-{1(RS)-[4-(3,4-Dichlorobenzyl)piperazin-1-ylmethyl]-2-methylpropyl}-2-(thiophene-2-yl)acetamide], the negative logarithm of the IC50 (pIC50) was 5.84.

`CC(C)C(CN1CCN(Cc2ccc(Cl)c(Cl)c2)CC1)NC(=O)c1ccccn1.Cl.Cl` (racemic) [compound 7, N-{1(RS)-[4-(3,4-Dichlorobenzyl)piperazin-1-ylmethyl]-2-methylpropyl}picolinamide dihydrochloride salt] showed a pIC50 of 6.38.

On to `Cc1ccc(NC(=O)N[C@H](CN2CCC(Cc3ccc(Cl)c(Cl)c3)CC2)C(C)(C)C)cc1` [compound 100], for which the pIC50 was 5.61. The same measure, in the same setting: the figure for `CC(C)C(CN1CCN(Cc2ccc(Cl)cc2)CC1)NC(=O)Nc1ccccc1` (stereo not shown) [compound 89] is 5.77.

Test system in another data set: not given
Test: not given
Conditions: not given
`Cc1ccc(C(=O)N[C@H](CN2CCC(Cc3ccc(Cl)c(Cl)c3)CC2)C(C)C)cc1` (as salt: HCl) [compound 57, N-{1-(S)-[4-(3,4-Dichlorobenzyl)piperidin-1-ylmethyl]-2-methylpropyl}-4-methylbenzamide] gave a melting point of 87 to 90 °C. Still for that read-out and setting: the value for `COc1cccc(NC(=O)NC(C(C)C)C2CCN(Cc3ccc(Cl)c(Cl)c3)CC2)c1` (racemic) [compound 132, 1-{1(RS)-[1-(3,4-Dichlorobenzyl)piperidin-4-yl]-2-methylpropyl}-3-(3-methoxyphenyl)urea] was 161.4 to 161.8 °C. On to `Cc1ccc(C(=O)N[C@H](CN2CCC(Cc3ccc(Cl)c(Cl)c3)CC2)C(C)C)s1` (as salt: HCl) [compound 71, N-{1-(R)-[4-(Dichlorobenzyl)piperidin-1-ylmethyl]-2-methylpropyl}-5-methylthiophene-2-carboxamide Hydrochloride Salt], for which the melting point lay in the range of 45 to 47.5 °C. Same read-out and setting: the value for `Cc1ccc(C(=O)N[C@H](CN2CCN(Cc3ccc(Cl)c(Cl)c3)CC2)C(C)C)cc1` (as salt: HCl) [compound 8, N-{1(S)-[4-(3,4-Dichlorobenzyl)piperazin-1-ylmethyl]-2-methylpropyl}-4-methylbenzamide dihydrochloride salt] was 229 to 229.6 °C.

In turn, `CCCC(CN1CCN(Cc2ccc(Cl)c(Cl)c2)CC1)NC(=O)c1ccc(C)cc1` (stereo not shown) (as salt: HCl) [compound 23] had a melting point of 199.5 to 203.5 °C.

For `COc1cccc(NC(=O)N[C@H](CN2CCC(Cc3ccc(Cl)c(Cl)c3)CC2)C(C)(C)C)c1` [compound 99], the melting point lay in the range of 75.1 to 80.3 °C. For `COc1ccc(C(=O)N[C@H](CN2CCN(Cc3ccc(Cl)c(Cl)c3)CC2)C(C)C)cc1.Cl.Cl`, the melting point was in the range of 222.5 to 223 °C.

Regarding `CC(C)C(CN1CCN(Cc2ccc(Cl)c(Cl)c2)CC1)NC(=O)c1ccncc1` (stereo not shown) (as salt: HCl) [compound 20], the melting point was in the range of 150 to 153 °C.

Consider `CC(C)(C)[C@@H](CN1CCC(Cc2ccc(Cl)c(Cl)c2)CC1)NC(=O)c1ccc(Cl)cc1` [compound 61], for which the melting point lay within 63 to 68 °C. On the same count and under the same terms, the figure for `Cc1ccc(C(=O)N2CCC[C@@H]2CN2CCN(Cc3ccc(Cl)c(Cl)c3)CC2)cc1` (as salt: HCl) [compound 78, {1-(4-Methylbenzoyl)-2(R)-[4-(3,4-dichlorobenzyl)piperazin-1-ylmethyl]}pyrrolidine Dihydrochloride Salt] is 249.6 to 250.1 °C; for `COc1cccc(NC(=O)N[C@H](CN2CCN(Cc3ccc(Cl)c(Cl)c3)CC2)C(C)C)c1` (as salt: HCl) [compound 98, 1-{1(S)-[4-(3,4-Dichlorobenzyl)piperazin-1-ylmethyl]-2-methylpropyl}-3-(3-methoxyphenyl)urea] it is 97.5 to 99.5 °C. The same measure, in the same setting: the value for `Cc1ccc(NC(=O)N[C@H](CN2CCC(Cc3ccc(Cl)c(Cl)c3)CC2)C(C)(C)C)cc1` (as salt: HCl) [compound 100] was 109.5 to 111 °C; that for `CC(C)C(CN1CCN(Cc2ccc(Cl)c(Cl)c2)CC1)NC(=O)c1ccccn1.Cl.Cl` (racemic) [compound 7, N-{1(RS)-[4-(3,4-Dichlorobenzyl)piperazin-1-ylmethyl]-2-methylpropyl}picolinamide dihydrochloride salt] was 226.2 to 229.9 °C; that for `Cc1ccc(C(=O)N[C@H](CN2CCN(Cc3ccc(Cl)c(Cl)c3)CC2)C(C)(C)C)cc1.Cl.Cl` was 238 to 242 °C. The same measure, in the same setting: the figure for `O=C(N[C@@H](CN1CCN(Cc2ccc(Cl)c(Cl)c2)CC1)C1CCCCC1)c1ccc(Cl)cc1` [compound 35, N-{1(R)-cyclohexyl-2-[4-(3,4-dichlorobenzyl)piperazin-1-yl]ethyl}-4-chloro-benzamide] is 149 to 155 °C; for `Cc1ccc(C(=O)NC(CC2CCN(Cc3ccc(Cl)c(Cl)c3)CC2)C(C)C)cc1` (racemic) (as salt: hydrochloride) [compound 133] it is 233.9 to 235.5 °C.
